Earlier results on one molecule are cited in PMC7237710, “Thanatin Impairs Lipopolysaccharide Transport Complex Assembly by Targeting LptC–LptA Interaction and Decreasing LptA Stability” (Frontiers in Microbiology, 2020).

“Also recorded” adds a separate entry of the source.

Data set [1] deals with LptC–LptA interaction. The note with it: yeast two-hybrid system; ref Zhang et al., 2019; cited from earlier work.
Data set [2] concerns E. coli and other Enterobacterial species. More on the design: method as in Zhang et al., 2019. The note with it: ref Zhang et al., 2019; cited from earlier work.

As for `Clc1cc2c(c3ncccc13)OCN(CCc1ccccc1)C2` [IMB-881], the “disruption of LptC–LptA interaction” value in data set [1] is recorded as “inhibiting LptC–LptA interaction; also recorded: disrupts LptC–LptA interaction”. Besides, the bactericidal activity result in data set [2] is listed as “bactericidal activity”.
